Values quoted from earlier work in EP4599698A1, “PRODUCTS COMPRISING SENSORY AGENTS” (Nicoventures Trading Limited, priority 2024, dated 2025).

Key:
TRP ankyrin 1/TRPA1 = TRP ankyrin 1/TRPA1 (Homo sapiens, UniProt O75762)
[1] = target: transient receptor potential vanilloid 1/TRPV1 (Homo sapiens, UniProt Q8NER1)
TRP melastatin 8/TRPM8 = TRP melastatin 8/TRPM8 (Homo sapiens, UniProt Q7Z2W7)
[2] = when isolated; converts via isomerization into trans-bixin (β-bixin)

transient receptor potential vanilloid 1/TRPV1, sequence (Q8NER1 whole entry): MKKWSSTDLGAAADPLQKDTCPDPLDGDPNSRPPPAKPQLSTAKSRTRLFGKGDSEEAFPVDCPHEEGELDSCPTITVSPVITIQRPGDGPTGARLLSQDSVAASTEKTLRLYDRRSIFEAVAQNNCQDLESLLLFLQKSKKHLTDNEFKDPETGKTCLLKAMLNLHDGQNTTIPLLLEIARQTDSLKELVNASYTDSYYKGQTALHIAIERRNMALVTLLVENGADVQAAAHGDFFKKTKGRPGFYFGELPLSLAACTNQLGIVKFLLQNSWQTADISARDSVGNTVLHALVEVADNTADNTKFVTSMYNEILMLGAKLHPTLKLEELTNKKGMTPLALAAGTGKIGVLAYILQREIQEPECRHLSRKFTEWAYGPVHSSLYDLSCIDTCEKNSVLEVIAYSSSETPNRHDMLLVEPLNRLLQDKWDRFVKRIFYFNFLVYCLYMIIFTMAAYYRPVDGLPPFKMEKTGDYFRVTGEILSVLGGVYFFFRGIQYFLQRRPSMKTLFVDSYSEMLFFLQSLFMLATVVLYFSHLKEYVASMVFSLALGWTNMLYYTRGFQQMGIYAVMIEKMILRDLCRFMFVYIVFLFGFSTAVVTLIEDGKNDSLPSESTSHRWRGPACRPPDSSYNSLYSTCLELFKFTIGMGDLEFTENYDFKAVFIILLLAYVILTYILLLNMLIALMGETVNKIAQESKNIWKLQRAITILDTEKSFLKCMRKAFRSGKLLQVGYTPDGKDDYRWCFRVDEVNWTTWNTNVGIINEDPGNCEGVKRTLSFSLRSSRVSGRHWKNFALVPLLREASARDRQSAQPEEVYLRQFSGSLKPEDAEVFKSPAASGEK
TRP ankyrin 1/TRPA1, sequence (O75762 whole entry): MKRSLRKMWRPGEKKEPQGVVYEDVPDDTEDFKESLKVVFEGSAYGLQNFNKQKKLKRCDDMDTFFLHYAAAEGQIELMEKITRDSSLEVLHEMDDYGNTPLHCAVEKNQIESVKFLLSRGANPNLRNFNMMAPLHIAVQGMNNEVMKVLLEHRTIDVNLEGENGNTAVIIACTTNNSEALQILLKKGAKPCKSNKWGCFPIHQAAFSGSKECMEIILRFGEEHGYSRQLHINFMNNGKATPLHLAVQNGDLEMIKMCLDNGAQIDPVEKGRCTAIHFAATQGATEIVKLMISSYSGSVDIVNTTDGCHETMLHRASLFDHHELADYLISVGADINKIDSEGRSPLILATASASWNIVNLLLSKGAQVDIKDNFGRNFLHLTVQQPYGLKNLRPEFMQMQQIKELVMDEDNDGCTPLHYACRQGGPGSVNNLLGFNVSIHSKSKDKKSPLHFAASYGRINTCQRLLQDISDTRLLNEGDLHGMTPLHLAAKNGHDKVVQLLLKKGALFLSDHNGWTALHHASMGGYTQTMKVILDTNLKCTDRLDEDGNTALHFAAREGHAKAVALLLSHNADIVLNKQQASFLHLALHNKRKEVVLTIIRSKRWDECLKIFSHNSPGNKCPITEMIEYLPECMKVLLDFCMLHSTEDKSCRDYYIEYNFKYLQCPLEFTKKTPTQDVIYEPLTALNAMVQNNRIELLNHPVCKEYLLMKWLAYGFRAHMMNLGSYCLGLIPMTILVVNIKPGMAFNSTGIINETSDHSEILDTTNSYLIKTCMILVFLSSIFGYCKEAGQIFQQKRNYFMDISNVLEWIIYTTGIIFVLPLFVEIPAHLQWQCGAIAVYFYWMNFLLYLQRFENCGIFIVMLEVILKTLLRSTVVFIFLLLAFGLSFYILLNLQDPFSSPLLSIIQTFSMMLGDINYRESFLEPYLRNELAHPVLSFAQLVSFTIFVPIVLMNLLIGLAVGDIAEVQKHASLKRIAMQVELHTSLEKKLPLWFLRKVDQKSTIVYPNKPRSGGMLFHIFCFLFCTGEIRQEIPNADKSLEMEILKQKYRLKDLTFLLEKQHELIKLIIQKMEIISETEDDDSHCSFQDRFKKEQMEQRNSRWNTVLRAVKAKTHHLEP
TRP melastatin 8/TRPM8, sequence (Q7Z2W7 whole entry): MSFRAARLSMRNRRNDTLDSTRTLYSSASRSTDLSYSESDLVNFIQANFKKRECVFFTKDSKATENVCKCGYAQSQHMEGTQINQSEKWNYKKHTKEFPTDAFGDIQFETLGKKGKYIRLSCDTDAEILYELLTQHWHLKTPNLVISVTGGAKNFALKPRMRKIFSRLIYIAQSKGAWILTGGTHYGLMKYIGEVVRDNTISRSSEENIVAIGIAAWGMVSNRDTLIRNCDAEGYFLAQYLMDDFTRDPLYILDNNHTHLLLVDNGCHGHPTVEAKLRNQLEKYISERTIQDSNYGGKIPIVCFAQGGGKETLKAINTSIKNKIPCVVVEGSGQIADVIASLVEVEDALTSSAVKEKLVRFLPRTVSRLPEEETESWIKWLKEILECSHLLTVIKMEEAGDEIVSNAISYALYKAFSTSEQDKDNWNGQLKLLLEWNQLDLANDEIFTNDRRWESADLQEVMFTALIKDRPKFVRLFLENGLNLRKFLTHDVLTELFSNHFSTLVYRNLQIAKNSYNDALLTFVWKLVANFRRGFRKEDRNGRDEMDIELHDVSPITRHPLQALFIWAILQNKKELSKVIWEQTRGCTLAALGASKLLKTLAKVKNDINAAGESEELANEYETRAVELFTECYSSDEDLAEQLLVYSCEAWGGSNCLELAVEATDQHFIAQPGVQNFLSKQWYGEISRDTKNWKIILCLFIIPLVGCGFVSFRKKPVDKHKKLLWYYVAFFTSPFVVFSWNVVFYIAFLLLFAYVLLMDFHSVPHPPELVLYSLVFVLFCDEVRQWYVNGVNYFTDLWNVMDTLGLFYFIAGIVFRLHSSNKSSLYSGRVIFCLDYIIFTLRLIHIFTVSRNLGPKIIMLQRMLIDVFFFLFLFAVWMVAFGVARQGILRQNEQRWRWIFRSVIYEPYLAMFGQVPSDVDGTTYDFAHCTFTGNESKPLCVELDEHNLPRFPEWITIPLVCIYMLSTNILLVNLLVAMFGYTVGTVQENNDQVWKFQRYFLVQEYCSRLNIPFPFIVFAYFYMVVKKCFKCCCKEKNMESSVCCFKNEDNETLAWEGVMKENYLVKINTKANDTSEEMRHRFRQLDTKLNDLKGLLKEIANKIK

C/C=C/C=C/C=C\CC/C=C/C(=O)NCC(C)(C)O [Hydroxyl-α-sanshool]
agonist activity at TRPA1 (TRP ankyrin 1/TRPA1): agonist
agonist activity at TRPV1 [1]: agonist

C=CC(C)(O)CCC=C(C)C (stereo not shown) [Linalool]
stimulation of TRPA1-containing neurons (TRPA1-containing neurons): shown to stimulate
agonist activity at TRPM8 (TRP melastatin 8/TRPM8): weak agonist

CC(/C=C/C=C(C)/C=C/C(=O)O)=C\C=C\C=C(C)\C=C\C=C(C)\C=C\C(=O)O (stereo in doubt) [norbixin, (2E,4E,6E,8E,10E,12E,14E,16E,18E)-4,8,13,17-tetramethylicosa-2,4,6,8,10,12,14,16,18-nonaenedioic acid]
solubility in water: water soluble

COC(=O)/C=C/C(C)=C\C=C\C(C)=C\C=C\C=C(C)\C=C\C=C(C)\C=C\C(=O)O [bixin, (2E,4E,6E,8E,10E,12E,14E,16Z,18E)-20-methoxy-4,8,13,17-tetramethyl-20-oxoicosa-2,4,6,8,10,12,14,16,18-nonaenoic acid]
solubility in water: insoluble in water
chemical stability [2]: chemically unstable when isolated
